# According to ChEMBL document CHEMBL1201862, “PubChem BioAssay data set” (2004):
# The source made the active and inactive calls.
# Tests used:
# [1] = biological target: Heat shock protein HSP 90-alpha (Homo sapiens, UniProt P07900); test: Luminescence-based dose response biochemical high throughput screening assay for inhibitors of the Heat Shock Protein 90 (HSP90). [Related pubchem assays: 1831 (Summary AID.), 1846 (Confirmation screen.), 1789 (Primary screen.)]
# Genome polyprotein = Genome polyprotein (dengue virus type 2, UniProt P29990); test: flavivirus cap methylation enzyme inhibition – biochemical, confirmation dose response, primary screen (AID 588689); type: functional
# Chain of Genome polyprotein (P29990 2492-3391 limits assumed): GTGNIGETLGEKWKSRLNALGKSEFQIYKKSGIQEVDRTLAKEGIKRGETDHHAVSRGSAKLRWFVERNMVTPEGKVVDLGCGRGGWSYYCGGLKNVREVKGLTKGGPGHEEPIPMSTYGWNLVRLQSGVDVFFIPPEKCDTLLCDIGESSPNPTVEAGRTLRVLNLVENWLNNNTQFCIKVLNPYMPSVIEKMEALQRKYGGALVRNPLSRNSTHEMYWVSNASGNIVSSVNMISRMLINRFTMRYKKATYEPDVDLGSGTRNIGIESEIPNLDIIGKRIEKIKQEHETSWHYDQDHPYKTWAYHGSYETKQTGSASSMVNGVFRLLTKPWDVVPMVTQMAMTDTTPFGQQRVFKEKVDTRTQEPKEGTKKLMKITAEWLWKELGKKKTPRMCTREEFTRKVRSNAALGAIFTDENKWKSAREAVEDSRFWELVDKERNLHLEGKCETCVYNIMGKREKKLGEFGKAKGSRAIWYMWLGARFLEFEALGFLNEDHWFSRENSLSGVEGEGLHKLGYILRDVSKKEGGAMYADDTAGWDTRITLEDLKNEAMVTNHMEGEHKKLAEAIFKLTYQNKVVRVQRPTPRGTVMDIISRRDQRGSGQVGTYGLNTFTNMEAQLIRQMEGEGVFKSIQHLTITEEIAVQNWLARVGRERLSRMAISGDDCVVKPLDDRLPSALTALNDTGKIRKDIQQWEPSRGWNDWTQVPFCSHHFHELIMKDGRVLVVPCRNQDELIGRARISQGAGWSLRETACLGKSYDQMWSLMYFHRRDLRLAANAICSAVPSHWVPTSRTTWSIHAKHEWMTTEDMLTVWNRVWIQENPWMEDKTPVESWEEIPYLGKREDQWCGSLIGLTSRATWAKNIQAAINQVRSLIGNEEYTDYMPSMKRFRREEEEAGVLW
# [2] = reduction of Shn3 3'UTR-driven luciferase in osteoblasts – cell-based, Clone20 osteoblasts, firefly luciferase, cherry-picked, dose response (AID 624132); type: functional;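 further: firefly luciferase luminescence from reporter carrying the Shn3 3'UTR in osteoblasts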
# [3] = non-specific 3'UTR reporter inhibition in Clone20-Shn3RL – cell-based, Renilla luciferase, cherry-picked, counter-screen for Shn3 inhibitor project, dose response (AID 624133); type: functional
# [4] = biological target: COUP transcription factor 2 (Homo sapiens, UniProt P24468); test: Luminescence-based cell-based high throughput dose response assay to identify inhibitors of COUP-TFII (NR2F2).; type: functional;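 further: HEK293 cells transiently cotransfected with COUP-TFII expression vector and reporter; luciferase reporter luminescence driven by COUP-TFII from the pX2-168 reporter plasmid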
# [5] = A549 cell cytotoxicity, dose response, cytotoxicity control, plate reader, cherry-pick, antagonist series (AID 743412); type: functional, cell-based
# [6] = toxicity toward HepG2 liver cells – cell-based, plate reader, cherry-pick, antagonist series, cytotoxicity control, dose response (AID 743416); type: functional
# [7] = blockers of bursicon-stimulated LGR2 cAMP reporter – cell-based, HEK293, CRE-luciferase reporter, cherry pick, set 2, dose response (AID 743343); type: functional;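 further: transfected cells were stimulated with diluted bursicon conditioned medium after compound addition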
# [8] = blockade of melanocortin 4 receptor signaling – cell-based, plate reader, cherry pick, counter-screen for LGR2 antagonist project, dose response (AID 743444); type: functional;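 further: transfected HEK 293 cells stimulated with alpha-MSH peptide; potency of inhibitors of the alpha-MSH evoked signal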
# [9] = viability loss in HEK293 cells – cell-based, plate reader, cherry-picked samples, cytotoxicity control, dose response (AID 743446); type: functional
# [10] = growth inhibition of yeast DHODH-expressing 3D7 parasites – SYBR Green, dry powder samples, dose response (AID 1159570); type: functional, cell-based;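 further: parasite growth measured after 72 hours of compound exposure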
# [11] = P. falciparum Dd2 growth inhibitors, dose response, SYBR Green, cherry-picked samples (AID 1159567); type: functional, cell-based
# [12] = Dd2 malaria parasite growth inhibition potency – SYBR Green, dry powder samples, dose response (AID 1159566); type: functional, cell-based;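 further: potency for growth inhibition with lower SYBR green DNA signal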
# [13] = toxicity to human hepatoma HepG2 cells – cell-based, cherry-picked samples, cytotoxicity control, dose response (AID 1159577); type: functional
# [14] = growth inhibition of PfATP4-mutant resistant parasites – NITD609-resistant line, SYBR Green, dry powder, dose response (AID 1159571); type: functional, cell-based;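 further: parasites synchronized at ring stage by sorbitol before testing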
# [15] = biological target: Peroxisome proliferator-activated receptor gamma/Nuclear receptor corepressor 2 (Homo sapiens, UniProt P37231+Q9Y618); test: Counterscreen for NR2E3 inverse agonists: TR-FRET-based biochemical high throughput dose response assay to identify inverse agonists of the interaction between peroxisome proliferator-activated receptor gamma (PPARg) and nuclear receptor co-repressor 2 (NCOR2).; type: functional
# Chain of Peroxisome proliferator-activated receptor gamma/Nuclear receptor corepressor 2 (P37231 whole entry): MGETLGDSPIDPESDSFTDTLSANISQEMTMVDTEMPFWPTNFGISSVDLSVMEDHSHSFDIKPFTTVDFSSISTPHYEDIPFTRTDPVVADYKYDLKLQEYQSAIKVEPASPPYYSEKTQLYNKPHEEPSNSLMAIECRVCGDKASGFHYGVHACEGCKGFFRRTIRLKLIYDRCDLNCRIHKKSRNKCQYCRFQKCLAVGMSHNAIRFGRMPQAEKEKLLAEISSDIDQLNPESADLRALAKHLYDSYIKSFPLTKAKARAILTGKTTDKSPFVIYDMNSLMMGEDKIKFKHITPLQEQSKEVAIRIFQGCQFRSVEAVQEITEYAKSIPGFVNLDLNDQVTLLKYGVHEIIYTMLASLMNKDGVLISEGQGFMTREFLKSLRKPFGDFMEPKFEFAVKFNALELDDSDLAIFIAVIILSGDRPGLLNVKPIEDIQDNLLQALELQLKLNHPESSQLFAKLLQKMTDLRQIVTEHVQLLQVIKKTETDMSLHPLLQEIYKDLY
# Chain of Peroxisome proliferator-activated receptor gamma/Nuclear receptor corepressor 2 (Q9Y618 whole entry): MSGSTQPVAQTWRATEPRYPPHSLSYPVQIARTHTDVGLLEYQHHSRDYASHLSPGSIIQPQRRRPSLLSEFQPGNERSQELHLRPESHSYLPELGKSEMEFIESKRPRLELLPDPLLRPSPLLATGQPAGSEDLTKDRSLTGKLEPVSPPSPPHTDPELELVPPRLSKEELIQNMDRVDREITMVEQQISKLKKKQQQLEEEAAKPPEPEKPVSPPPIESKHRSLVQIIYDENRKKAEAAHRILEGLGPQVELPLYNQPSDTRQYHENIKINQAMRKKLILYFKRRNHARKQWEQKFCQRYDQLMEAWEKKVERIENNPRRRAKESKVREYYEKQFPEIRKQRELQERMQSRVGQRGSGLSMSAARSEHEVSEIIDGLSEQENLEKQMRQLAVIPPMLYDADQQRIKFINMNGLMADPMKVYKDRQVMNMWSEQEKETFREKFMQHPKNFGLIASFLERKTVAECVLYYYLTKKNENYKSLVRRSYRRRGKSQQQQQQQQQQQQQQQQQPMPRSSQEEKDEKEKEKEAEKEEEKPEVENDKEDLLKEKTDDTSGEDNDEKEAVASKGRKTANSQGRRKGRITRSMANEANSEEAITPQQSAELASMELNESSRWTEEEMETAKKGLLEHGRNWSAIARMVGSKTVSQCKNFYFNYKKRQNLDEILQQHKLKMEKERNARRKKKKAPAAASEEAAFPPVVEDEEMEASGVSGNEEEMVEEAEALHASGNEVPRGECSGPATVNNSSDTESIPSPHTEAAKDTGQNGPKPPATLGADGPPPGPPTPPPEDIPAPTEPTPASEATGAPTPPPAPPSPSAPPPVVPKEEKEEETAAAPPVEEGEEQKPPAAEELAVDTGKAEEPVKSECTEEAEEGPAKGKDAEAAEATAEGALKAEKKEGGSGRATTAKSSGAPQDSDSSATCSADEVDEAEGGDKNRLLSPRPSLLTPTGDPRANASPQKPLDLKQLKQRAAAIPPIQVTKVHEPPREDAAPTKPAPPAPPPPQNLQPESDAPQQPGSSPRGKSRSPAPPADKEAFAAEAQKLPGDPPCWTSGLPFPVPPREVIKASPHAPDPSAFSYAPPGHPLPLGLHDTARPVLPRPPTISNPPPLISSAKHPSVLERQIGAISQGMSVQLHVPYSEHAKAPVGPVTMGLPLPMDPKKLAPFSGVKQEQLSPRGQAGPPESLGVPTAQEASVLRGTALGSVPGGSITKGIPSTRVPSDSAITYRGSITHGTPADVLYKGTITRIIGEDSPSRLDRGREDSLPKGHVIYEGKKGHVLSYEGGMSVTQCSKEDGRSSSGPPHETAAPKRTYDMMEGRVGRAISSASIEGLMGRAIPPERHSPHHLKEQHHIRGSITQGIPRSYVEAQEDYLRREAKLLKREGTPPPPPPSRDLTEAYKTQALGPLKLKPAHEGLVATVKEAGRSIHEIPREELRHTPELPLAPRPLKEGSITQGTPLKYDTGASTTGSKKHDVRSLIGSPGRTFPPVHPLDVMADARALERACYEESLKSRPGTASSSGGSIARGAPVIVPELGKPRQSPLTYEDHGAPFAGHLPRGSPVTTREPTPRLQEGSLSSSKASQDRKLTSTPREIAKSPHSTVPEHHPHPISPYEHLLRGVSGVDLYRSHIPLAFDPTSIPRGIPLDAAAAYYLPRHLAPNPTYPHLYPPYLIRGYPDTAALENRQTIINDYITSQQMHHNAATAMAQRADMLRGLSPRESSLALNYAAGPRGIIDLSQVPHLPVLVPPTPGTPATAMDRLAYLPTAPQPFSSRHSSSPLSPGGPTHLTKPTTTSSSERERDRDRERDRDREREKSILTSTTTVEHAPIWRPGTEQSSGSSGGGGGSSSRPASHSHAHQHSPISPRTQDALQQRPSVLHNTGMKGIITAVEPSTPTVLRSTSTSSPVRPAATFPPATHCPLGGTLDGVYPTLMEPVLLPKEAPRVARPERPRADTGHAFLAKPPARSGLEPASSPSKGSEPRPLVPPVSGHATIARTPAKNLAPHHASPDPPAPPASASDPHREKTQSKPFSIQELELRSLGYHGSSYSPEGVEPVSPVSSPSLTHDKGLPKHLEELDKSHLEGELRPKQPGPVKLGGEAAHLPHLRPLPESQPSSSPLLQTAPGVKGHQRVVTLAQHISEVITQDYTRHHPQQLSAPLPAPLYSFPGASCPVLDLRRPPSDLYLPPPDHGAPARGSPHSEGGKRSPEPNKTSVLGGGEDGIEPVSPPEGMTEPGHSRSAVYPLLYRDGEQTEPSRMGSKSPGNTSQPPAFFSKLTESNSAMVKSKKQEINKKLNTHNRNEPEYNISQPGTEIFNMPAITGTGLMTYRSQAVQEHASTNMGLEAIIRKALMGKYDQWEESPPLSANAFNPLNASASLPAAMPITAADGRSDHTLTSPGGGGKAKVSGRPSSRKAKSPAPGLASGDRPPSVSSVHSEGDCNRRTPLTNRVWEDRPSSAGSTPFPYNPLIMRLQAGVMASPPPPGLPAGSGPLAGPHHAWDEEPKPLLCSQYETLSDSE
# [16] = biological target: Photoreceptor-specific nuclear receptor (Homo sapiens, UniProt Q9Y5X4); test: ligands suppressing NR2E3 nuclear receptor activity – biochemical, TR-FRET, dose response (AID 463256); type: functional
# Chain of Photoreceptor-specific nuclear receptor (Q9Y5X4 whole entry): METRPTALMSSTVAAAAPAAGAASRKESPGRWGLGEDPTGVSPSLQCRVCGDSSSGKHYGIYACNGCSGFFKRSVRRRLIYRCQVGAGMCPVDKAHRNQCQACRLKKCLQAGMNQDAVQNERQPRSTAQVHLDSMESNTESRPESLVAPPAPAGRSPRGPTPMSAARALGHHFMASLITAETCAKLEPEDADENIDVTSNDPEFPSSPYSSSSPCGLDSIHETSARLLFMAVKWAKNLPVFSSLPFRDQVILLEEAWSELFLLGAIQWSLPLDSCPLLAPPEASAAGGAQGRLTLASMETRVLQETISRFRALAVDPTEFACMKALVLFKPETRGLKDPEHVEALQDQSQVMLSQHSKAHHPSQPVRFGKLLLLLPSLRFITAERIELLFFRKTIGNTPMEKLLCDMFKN
# [17] = biological target: Bifunctional protein GlmU (Mycobacterium tuberculosis, UniProt P9WMN3); test: Inhibitors of Mycobacterial Glucosamine-1-phosphate acetyl transferase (GlmU). Secondary screen.; parameters: species or system Mycobacterium tuberculosis H37Rv
# Chain of Bifunctional protein GlmU (P9WMN3 whole entry): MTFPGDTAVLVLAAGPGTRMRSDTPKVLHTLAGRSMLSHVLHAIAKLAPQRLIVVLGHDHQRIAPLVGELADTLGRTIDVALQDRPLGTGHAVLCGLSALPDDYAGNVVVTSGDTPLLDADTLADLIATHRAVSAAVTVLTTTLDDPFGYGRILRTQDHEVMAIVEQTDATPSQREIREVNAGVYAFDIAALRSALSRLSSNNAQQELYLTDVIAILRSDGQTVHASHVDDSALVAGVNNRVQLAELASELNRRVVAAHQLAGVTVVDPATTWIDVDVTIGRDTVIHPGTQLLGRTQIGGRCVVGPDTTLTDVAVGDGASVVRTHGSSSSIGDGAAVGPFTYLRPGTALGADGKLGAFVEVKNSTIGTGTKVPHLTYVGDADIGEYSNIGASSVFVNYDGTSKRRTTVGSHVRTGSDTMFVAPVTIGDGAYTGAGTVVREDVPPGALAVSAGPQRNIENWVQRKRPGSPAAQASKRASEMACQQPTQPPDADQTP
# [18] = Luminescence-based cell-based high throughput dose response assay to identify activators of the DAF-12 from the parasite S. stercoralis (ssDAF-12).; type: functional
# [19] = biological target: T1, Oxysterols receptor LXR-beta (Homo sapiens, UniProt P55055); test: LXR agonists, Gal4 luciferase reporter, dose response, counter-screen for ssDAF-12 agonist project, cell-based, luminescence, HEK293, S. stercoralis campaign (AID 720737); type: functional; conditions: read-out: IC50 (the source's name)
# T1 sequence (P55055 whole entry): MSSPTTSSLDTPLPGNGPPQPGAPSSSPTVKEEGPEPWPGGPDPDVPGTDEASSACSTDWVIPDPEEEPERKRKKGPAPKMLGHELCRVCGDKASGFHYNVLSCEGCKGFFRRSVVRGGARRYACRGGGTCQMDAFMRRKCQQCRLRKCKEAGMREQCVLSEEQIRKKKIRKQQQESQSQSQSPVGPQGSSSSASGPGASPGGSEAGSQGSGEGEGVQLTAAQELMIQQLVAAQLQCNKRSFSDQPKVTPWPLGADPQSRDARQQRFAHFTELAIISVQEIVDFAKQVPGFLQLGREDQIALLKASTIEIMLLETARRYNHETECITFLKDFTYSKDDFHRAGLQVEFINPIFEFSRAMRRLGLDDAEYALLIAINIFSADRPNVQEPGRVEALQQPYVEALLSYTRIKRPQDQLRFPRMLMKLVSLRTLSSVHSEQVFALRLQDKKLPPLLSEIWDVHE
# [20] = activation of miR-122 Renilla sensor silencing – cell-based, Huh7 psiCHECK-miR122, Renilla luciferase, cherry-picked, dose response (AID 651956); type: functional;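 further: huh7 hepatoma cells stably carrying a psiCHECK-2 miR-122 sensor plasmid; renilla luciferase signal reporting endogenous miR-122 activity after 48 h compound exposure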
# [21] = general mammalian cell viability loss – inhibitor set, cherry-pick, set 2, cytotoxicity control for miR-122 modulator project, dose response (AID 720697); type: functional, cell-based
# [22] = general mammalian cell viability loss – activator set, cherry-pick, cytotoxicity control for miR-122 modulator project, dose response (AID 720690); type: functional, cell-based;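 further: HEK293T human cells scored for general mammalian cytotoxicity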
# [23] = Dd2 parasite growth inhibition in erythrocytes – SYBR Green, dry powder samples, set 9, dose response (AID 1159568); type: functional, cell-based
# Paired box protein Pax-8 = Paired box protein Pax-8 (Homo sapiens, UniProt Q06710); test: PAX8 transcriptional activity inhibition in RMG-I – RMG-I cells, luciferase, cherry-pick, dose response (AID 687027); type: functional, cell-based;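 further: luciferase reporter driven by Pax8 target thyroperoxidase promoter measured by SteadyGlo luminescence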
# [24] = A2780 cell killing – plate reader, dry powder samples, cytotoxicity control, dose response (AID 743046); type: functional, cell-based
# [25] = OVCAR8 cell viability loss – plate reader, dry powder samples, PAX8 project, dose response (AID 743197); type: functional, cell-based; conditions: OVCAR-8
compound,measurement,setting,value
C=CCOC(=O)c1sc(NC(=O)c2ccc(OC)cc2)nc1C,IC50,[1],3.58 µM (active)
O=C(O)c1[nH]c2ccccc2c1C(c1cc(Br)ccc1O)c1c(C(=O)O)[nH]c2ccccc12,IC50,Genome polyprotein,16 µM (active)
same,AC50,cells,9.21 µM (active)
CC[C@H]1CN2CCc3cc(OC)c(OC)cc3C2C[C@@H]1C[C@H]1NCCc2cc(OC)c(OC)cc21 (stereo not given in full),AC50,[2],< 0.26 µM (active)
same,AC50,[3],< 0.26 µM (active)
same,IC50,[4],0.209 µM (active)
same,AC50,[5],0.0576 µM (active)
same,AC50,[6],0.0959 µM (active)
same,AC50,[7],0.257 µM (active)
same,AC50,[8],0.25 µM (active)
same,AC50,[9],0.0731 µM (active)
COc1ccc(NC(=O)N2CC(=O)N3[C@@H](CO)[C@H](c4ccc(C#CCC5CCCC5)cc4)[C@@H]3C2)cc1,AC50,[10],2.19 µM (active)
same,AC50,[11],3.79 µM (active)
same,AC50,[12],2.17 µM (active)
same,AC50,[13],> 42 µM (inactive)
same,AC50,[14],2.84 µM (active)
Cc1ccc2c(Cl)c(C(=O)Nc3cc(C)on3)sc2c1,IC50,[15],14.1 µM (not active)
same,IC50,[16],12.7 µM (not active)
O=C(Nc1cccc(-c2nc3cccnc3s2)c1)c1ccc(Cl)nc1,IC50,[15],1.8 µM (active)
same,IC50,[16],3.37 µM (active)
O=C(O)CSCC(=O)Nc1ccc(-c2nc3ccccc3s2)cc1,IC50,[17],86.8 µM (active)
CC1(C)NC(=S)C(C)(C)N1N=O,IC50,[18],> 67.5 µM (inactive)
same,EC50,[19],> 67.5 µM (inactive)
CN1C(=O)c2cc(NC(=O)c3ccc(C(F)(F)F)cc3)ccc2OC[C@H]2O[C@@H](CC(=O)NCc3ccc4c(c3)OCO4)CC[C@H]21,AC50,[20],10.9 µM (active)
same,AC50,[21],7.69 µM (active)
same,AC50,[22],16.2 µM (active)
same,AC50,[23],17.8 µM (active)
COc1ccc(C#Cc2ccc([C@@H]3[C@H](CO)N4CCCCN(C(=O)Nc5ccc(F)cc5)C[C@@H]34)cc2)cc1,AC50,Paired box protein Pax-8,15.5 µM (active)
same,AC50,[24],13.9 µM (active)
same,AC50,[25],41.2 µM (active)
